Measurements as given in patent publication US9464064B2, “HCV helicase inhibitors and methods of use thereof” (University of Kansas, priority 2011, dated 2016).

How the values were obtained:
[1] = system: HCV replication complexes in Huh-7.5/HCV Con1sg Rluc cells; assay: Indirect immunofluorescence staining of NS5A (replication complexes); type: cell-based, hepatitis C virus; details: 10 μM, 72 hours
Protocol: For indirect immunofluorescence staining, Huh-7.5/HCV Con1sg Rluc cells were plated on cover slips in a 24-well plate. The next day, compounds were added at a 10 μM concentration and after 48 hours from the first addition, the medium was supplemented with 10 μM compound. Interferon alpha-2b was used as positive control at 100 U/well and added at the same time points as compounds. After 72 hours, indirect immunofluorescence staining was performed according to standard methods. Cells were fixed in 1% PFA for 40 minutes, washed thrice with 5 mL PBS, permeabilized with 0.05% saponin (Sigma) and blocked with 3% BSA in PBS for 1 hour at 37° C. Subsequently, cells were washed with 2 mL PBS three times and incubated with mouse monoclonal antibody 9E10 against NS5A diluted in blocking buffer for 1 hour at room temperature. Cells were washed three times with 2 ml PBS and once with 3% BSA. The cells were then incubated with ALEXA 546 conjugated-goat F(ab′)2 anti-mouse immunoglobulin G (IgG) (Invitrogen) for 1 hour at room temperature. Cells were washed twice with PBS and then mounted on glass slides using PROLONG Gold anti-fade reagent (Invitrogen). Appropriate controls were performed to rule out nonspecific binding of primary and secondary antibodies.
Microscopy was performed with a Nikon Ti-E inverted fluorescence microscope using a 20× and 40×/NA 1.4 objective. […]

[2] = system: NS5A in Huh7.5/HCV Con1sg Rluc replicon cells; assay: Western blot of NS5A in replicon cells; type: cell-based, hepatitis C virus; details: 4-day exposure
Protocol: To analyze effects on HCV proteins expression by western blot, Huh7.5/HCV Con1sg Rluc replicon stable cells were washed with PBS, harvested in PBS, and lysed with RIPA buffer for 20 minutes on ice and cleared lysates were obtained by centrifugation at 14,000 rpm for 20 minutes at 4° C. Protein concentrations were determined with the BIO-RAD protein assay kit (Bio-Rad) and 15 μg total proteins was resolved on 10% sodium dodecyl sulfate-polyacrylamide gel electrophoresis (SDS-PAGE) and transferred to nitrocellulose membrane. The blots were probed with primary anti-NS5A mAb (Meridian life Sciences, Saco, Me.) and a peroxidase-conjugated secondary antibody (Cell Signaling, Danvers, Mass.) and were developed with enhanced chemiluminescence (ECL) detection reagents (Pierce, Rockford, Ill.). The blots were stripped and probed again with primary anti-tubulin antibody (Sigma) to confirm equal loading of protein and a peroxidase-conjugated anti-mouse secondary antibody (Cell Signaling) and developed with ECL reagents (Pierce).
To further characterize the anti-viral activity of this class of compounds, HCV Renilla luciferase (Rluc) subgenomic replicon cells were exposed to different concentrations of compound 24 and the effect of compound 24 on HCV replication was assessed on HCV Rluc reporter gene activity. […]

In the case of `Cc1ccc2nc(-c3ccc4nc(-c5ccc(NC(=O)c6cc(C(F)(F)F)cc(C(F)(F)F)c6)cc5)sc4c3)sc2c1S(=O)(=O)O` [Compound 24, 2′-(4-(3,5-bis(trifluoromethyl)benzamido)phenyl)-6-methyl-[2,6′-bibenzo[d]thiazole]-7-sulfonic acid], the “number of HCV replication complexes (NS5A staining)” value [1] is reported as “lower number of replication complexes” and the “cellular NS5A levels” value [2] is reported as “reduced NS5A levels in a time-dependent manner”.
